In general, IC50 refers to the concentration that gives 50% inhibition.

T1 sequence (P17931 whole entry): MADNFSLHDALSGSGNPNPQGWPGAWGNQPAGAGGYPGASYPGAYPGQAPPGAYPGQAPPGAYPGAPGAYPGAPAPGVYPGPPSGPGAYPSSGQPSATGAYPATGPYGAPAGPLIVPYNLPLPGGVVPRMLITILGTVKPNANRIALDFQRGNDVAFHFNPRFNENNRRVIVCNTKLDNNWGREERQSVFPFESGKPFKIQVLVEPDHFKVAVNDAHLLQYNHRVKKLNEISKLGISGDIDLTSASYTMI

The first assay concerns the target T1, hGalectin-3 (Homo sapiens, UniProt P17931).
T1 construct: made in house
Kind of assay: Gal-3 ELISA assay (hGalectin-3 neutralization binding to asialofetuin). To be noted: Table 1; read-out: hGal-3 IC50. (ELISA stands for enzyme-linked immunosorbent assay.)
On to `O=C([C@@H]1O[C@H](CO)[C@H](O)[C@H](n2cc(-c3cccc(F)c3)nn2)[C@H]1O)N1CCN(c2ncc(O)cn2)CC1` [Example 4], for which the IC50 stood at 850 nM. On the same count and under the same terms, for `Cn1ccc2cc(N3CCN(C(=O)[C@@H]4O[C@H](CO)[C@H](O)[C@H](n5cc(-c6cccc(F)c6)nn5)[C@H]4O)CC3)ccc21` [Example 6] the value was 420 nM.

Regarding `COc1cc(N2CCN(C(=O)[C@@H]3O[C@H](CO)[C@H](O)[C@H](n4cc(-c5cccc(F)c5)nn4)[C@H]3O)CC2)ccc1O` [Example 5], the IC50 is 360 nM.

The assay is the same for the next values; noted with them: Table 3; read-out: hGal-3 IC50.
As to `O=C([C@@H]1O[C@H](CO)[C@H](O)[C@H](n2cc(-c3cccc(F)c3)nn2)[C@H]1O)N1C[C@@H]2C[C@H]1CN2c1ccc2c(c1)OCO2` [Example 20], the IC50 is 249 nM. Still for that read-out and setting: for `COc1ccc(OC)c(N2CC3CC2CN3C(=O)C2OC(CO)C(O)C(n3cc(-c4cccc(F)c4)nn3)C2O)c1` (stereo not shown) [Example 21] the value was 962 nM.

The same assay, now with this note: biotin-tagged hGalectin-3 15 nM, ASF-coated plate; read-out: hGal3 IC50.
For the compound `O=C([C@@H]1O[C@H](CO)[C@H](O)[C@H](n2cc(-c3cccc(F)c3)nn2)[C@H]1O)N1CCCN(c2ccc(O)cc2)CC1` [Example 33, ((2R, 3R, 4S, 5R, 6R)-4-(4-(3-fluorophenyl)-1H-1,2,3-triazol-1-yl)-3,5-dihydroxy-6-(hydroxymethyl)tetrahydro-2H-pyran-2-yl)(4-(4-hydroxyphenyl)-1,4-diazepan-1-yl)methanone], the IC50 turned out to be 480 nM. Regarding `C[C@@H]1CN(c2ccc(O)cc2)[C@@H](C)CN1C(=O)[C@@H]1O[C@H](CO)[C@H](O)[C@H](n2cc(-c3cccc(F)c3)nn2)[C@H]1O` (single isomer, unassigned) [Example 37b], the IC50 was 310 nM. On the same count and under the same terms, for `COc1ccc(N2CCN(C(=O)[C@@H]3O[C@H](CO)[C@H](O)[C@H](n4cc(-c5cccc(F)c5)nn4)[C@H]3OC)CC2)cc1` [Example 11, ((2R, 3R, 4S, 5R, 6R)-4-(4-(3-fluorophenyl)-1H-1,2,3-triazol-1-yl)-5-hydroxy-6-(hydroxymethyl)-3-methoxytetrahydro-2H-pyran-2-yl)(4-(4-methoxyphenyl)piperazin-1-yl) methanone] the value was 300 nM. For `OCC1CN(C[C@@H]2O[C@H](CO)[C@H](O)[C@H](n3cc(-c4cccc(F)c4)nn3)[C@H]2O)CCN1c1ccc(O)cc1` (single isomer, unassigned) [Example 40a], the concentration for half-maximal inhibition (IC50) turned out to be 940 nM. As for `CS(=O)(=O)Nc1ccc(N2C[C@@H]3C[C@H]2CN3C(=O)[C@@H]2O[C@H](CO)[C@H](O)[C@H](n3cc(-c4cccc(F)c4)nn3)[C@H]2O)cn1` [Example 42], the 50% inhibitory concentration (IC50) stood at 420 nM. Same read-out and setting: for `CC1CN(c2ccc(O)cc2)CCN1C(=O)[C@@H]1O[C@H](CO)[C@H](O)[C@H](n2cc(-c3cccc(F)c3)nn2)[C@H]1O` (single isomer, unassigned) [Example 36] the value was 340 nM; for `CO[C@@H]1[C@@H](n2cc(-c3cccc(F)c3)nn2)[C@@H](O)[C@@H](CO)O[C@H]1C(=O)N1CCN(c2ccc(O)cc2)CC1` [Example 13, ((2R,3R,4S,5R,6R)-4-(4-(3-fluorophenyl)-1H-1,2,3-triazol-1-yl)-5-hydroxy-6-(hydroxymethyl)-3-methoxytetrahydro-2H-pyran-2-yl)(4-(4-hydroxyphenyl)piperazin-1-yl)methanone], 150 nM; for `COc1ccc(N2CC3CC2CN3C(=O)[C@@H]2O[C@H](CO)[C@H](O)[C@H](n3cc(-c4cccc(F)c4)nn3)[C@H]2O)cc1` (stereo in doubt) [Example 31, ((2R,3R,4S,5R,6R)-4-(4-(3-fluorophenyl)-1H-1,2,3-triazol-1-yl)-3,5-dihydroxy-6-(hydroxymethyl)tetrahydro-2H-pyran-2-yl)((1S,4S)-5-(4-methoxyphenyl)-2,5-diazabicyclo[2.2.1]heptan-2-yl)methanone], 220 nM. As to `O=C([C@@H]1O[C@H](CO)[C@H](O)[C@H](n2cc(-c3cccc(F)c3)nn2)[C@H]1O)N1C[C@@H]2C[C@H]1CN2c1ccc(O)cc1` [Example 25, ((2R,3R,4S,5R,6R)-4-(4-(3-fluorophenyl)-1H-1,2,3-triazol-1-yl)-3,5-dihydroxy-6-(hydroxymethyl)tetrahydro-2H-pyran-2-yl)((1S,4S)-5-(4-hydroxyphenyl)-2,5-diazabicyclo[2.2.1]heptan-2-yl)methanone], the IC50 was found to be 900 nM. With `CS(=O)(=O)Nc1ccc(N2C[C@@H]3C[C@H]2CN3C(=O)[C@@H]2O[C@H](CO)[C@H](O)[C@H](n3cc(-c4cccc(F)c4)nn3)[C@H]2O)nc1` [Example 41, N-(6-((1S,4S)-5-((2R,3R,4S,5R,6R)-4-(4-(3-fluorophenyl)-1H-1,2,3-triazol-1-yl)-3,5-dihydroxy-6-(hydroxymethyl)tetrahydro-2H-pyran-2-carbonyl)-2,5-diazabicyclo[2.2.1]heptan-2-yl)pyridin-3-yl)methanesulfonamide], the half-inhibitory concentration (IC50) worked out at 720 nM. For `O=C([C@@H]1O[C@H](CO)[C@H](O)[C@H](n2cc(-c3cccc(F)c3)nn2)[C@H]1O)N1CCN(c2ccc(O)cc2)CC1CO` (single isomer, unassigned) [Example 34a], the IC50 is 1300 nM. On to `O=C([C@@H]1O[C@H](CO)[C@H](O)[C@H](n2cc(-c3cccc(F)c3)nn2)[C@H]1O)N1CCN(c2ccc(O)cc2)C(CO)C1` (single isomer, unassigned) [Example 35a], for which the IC50 is 1100 nM. In the case of `COc1ccc(N2C[C@@H]3C[C@H]2CN3C[C@@H]2O[C@H](CO)[C@H](O)[C@H](n3cc(-c4cccc(F)c4)nn3)[C@H]2O)cc1` [Example 29, (2R,3R,4R,5R,6S)-4-(4-(3-fluorophenyl)-1H-1,2,3-triazol-1-yl)-2-(hydroxymethyl)-6-(((1S,4S)-5-(4-methoxyphenyl)-2,5-diazabicyclo[2.2.1]heptan-2-yl)methyl)tetrahydro-2H-pyran-3,5-diol], the concentration for half-maximal inhibition (IC50) came to 250 nM. Take `O=C(Nc1ccc(O)cc1)N1C[C@@H]2C[C@H]1CN2C(=O)[C@@H]1O[C@H](CO)[C@H](O)[C@H](n2cc(-c3cccc(F)c3)nn2)[C@H]1O` [Example 30, (1S, 4S)-5-((2R, 3R, 4S, 5R, 6R)-4-(4-(3-fluorophenyl)-1H-1,2,3-triazol-1-yl)-3,5-dihydroxy-6-(hydroxymethyl)tetrahydro-2H-pyran-2-carbonyl)-N-(4-hydroxyphenyl)-2,5-diazabicyclo[2.2.1]heptane-2-carboxamide]: the IC50 was found to be 500 nM. Still for that read-out and setting: for `O=C([C@@H]1O[C@H](CO)[C@H](O)[C@H](n2cc(-c3cccc(F)c3)nn2)[C@H]1O)N1CCN(c2ccc(O)cc2)C(CO)C1` (single isomer, unassigned) [Example 35b] the value was 140 nM. On the same count and under the same terms, the value for `O=C(C[C@@H]1O[C@H](CO)[C@H](O)[C@H](n2cc(-c3cccc(F)c3)nn2)[C@H]1O)N1C[C@@H]2C[C@H]1CN2c1ccc2c(c1)OCO2` [Example 28] was 580 nM. On the same count and under the same terms, the value for `O=C([C@@H]1O[C@H](CO)[C@H](O)[C@H](n2cc(-c3cccc(F)c3)nn2)[C@H]1O)N1CCN(c2ccc3[nH]c(=O)[nH]c3c2)CC1` [Example 9, 5-(4-((2R,3R,4S,5R,6R)-4-(4-(3-fluorophenyl)-1H-1,2,3-triazol-1-yl)-3,5-dihydroxy-6-(hydroxymethyl)tetrahydro-2H-pyran-2-carbonyl)piperazin-1-yl)-1H-benzo[d]imidazol-2(3H)-one] was 390 nM.

The values are drawn from patent publication US12286424B2, “Small molecule inhibitors of galectin-3” (BRISTOL-MYERS SQUIBB COMPANY, priority 2020, dated 2025).
